What was measured:
Experiment in all cases: relative viability (nuclei count vs DMSO), 5 days (fraction); higher = more cells survive
Tozasertib + Lapatinib = compound: Cc1cc(Nc2cc(N3CCN(C)CC3)nc(Sc3ccc(NC(=O)C4CC4)cc3)n2)n[nH]1 [Tozasertib] + CS(=O)(=O)CCNCc1ccc(-c2ccc3ncnc(Nc4ccc(OCc5cccc(F)c5)c(Cl)c4)c3c2)o1 [Lapatinib] (partner 2 µM)
Procedure, shortened: (§1)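 Lung cancer cell lines were seeded in 1536-well plates and dosed by pin tool the next day, with either a single drug or a fixed anchor-drug dose combined with five library-drug doses (not always all listed) spaced in √10 steps. Five days later, one step fixed the cells and stained their nuclei (final 0.05% Triton X-100, 1% formaldehyde, 1 ug/ml Hoechst), and nuclei were counted on 4× images. Relative viability is the nuclei count in treated wells divided by the count in vehicle wells, and each value is the median of duplicate plates.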

Tozasertib + Palbociclib = compound: Cc1cc(Nc2cc(N3CCN(C)CC3)nc(Sc3ccc(NC(=O)C4CC4)cc3)n2)n[nH]1 [Tozasertib] + CC(=O)c1c(C)c2cnc(Nc3ccc(N4CCNCC4)cn3)nc2n(C2CCCC2)c1=O [Palbociclib] (partner 0.5 µM)
Procedure, shortened: as §1

Tozasertib + AZD7762 = compound: Cc1cc(Nc2cc(N3CCN(C)CC3)nc(Sc3ccc(NC(=O)C4CC4)cc3)n2)n[nH]1 [Tozasertib] + NC(=O)Nc1cc(-c2cccc(F)c2)sc1C(=O)N[C@H]1CCCNC1 [AZD7762] (partner 0.2 µM)
Procedure, shortened: as §1

Tozasertib + Pemetrexed = compound: Cc1cc(Nc2cc(N3CCN(C)CC3)nc(Sc3ccc(NC(=O)C4CC4)cc3)n2)n[nH]1 [Tozasertib] + Nc1nc2[nH]cc(CCc3ccc(C(=O)N[C@@H](CCC(=O)O)C(=O)O)cc3)c2c(=O)[nH]1 [Pemetrexed] (partner 0.2 µM)
Procedure, shortened: as §1

Row | Cell Line | relative viability (Tozasertib + Lapatinib; first compound 0.004 µM) | relative viability (Tozasertib + Lapatinib; first compound 0.01265 µM) | relative viability (Tozasertib + Lapatinib; first compound 0.04 µM) | relative viability (Tozasertib + Lapatinib; first compound 0.1265 µM) | relative viability (Tozasertib + Palbociclib; first compound 0.004 µM) | relative viability (Tozasertib + Palbociclib; first compound 0.01265 µM) | relative viability (Tozasertib + Palbociclib; first compound 0.04 µM) | relative viability (Tozasertib + Palbociclib; first compound 0.1265 µM) | relative viability (Tozasertib + AZD7762; first compound 0.004 µM) | relative viability (Tozasertib + AZD7762; first compound 0.01265 µM) | relative viability (Tozasertib + AZD7762; first compound 0.04 µM) | relative viability (Tozasertib + AZD7762; first compound 0.1265 µM) | relative viability (Tozasertib + Pemetrexed; first compound 0.004 µM) | relative viability (Tozasertib + Pemetrexed; first compound 0.04 µM) | relative viability (Tozasertib + Pemetrexed; first compound 0.1265 µM) | relative viability (Tozasertib + Pemetrexed; first compound 0.01265 µM)
1 | NCI-H1793 | 0.699 | 0.598 | 0.573 | 0.364 | 0.307 | 0.312 | 0.367 | 0.295 | 0.405 | 0.425 | 0.59 | 0.486 | 1.02 | 1.16 | 0.458 | 
2 | NCI-H1915 | 1.05 | 0.968 | 0.897 | 0.688 | 0.515 | 0.498 | 0.535 | 0.465 | 0.75 | 0.718 | 0.659 | 0.493 | 0.46 | 0.474 | 0.412 | 0.477
3 | NCI-H1944 | 0.869 | 0.728 | 0.772 | 0.339 | 0.311 | 0.308 | 0.332 | 0.273 | 0.403 | 0.479 | 0.443 | 0.327 | 0.577 | 0.588 | 0.537 | 0.579
4 | NCI-H1975 | 0.886 | 0.876 | 0.903 | 0.429 | 0.59 | 0.598 | 0.623 | 0.622 | 0.93 | 0.672 | 0.727 | 0.612 | 0.317 | 0.307 | 0.272 | 0.289
5 | NCI-H1993 | 0.804 | 0.82 | 0.829 | 0.772 | 0.622 | 0.63 | 0.681 | 0.743 | 0.708 | 0.761 | 0.837 | 0.542 | 0.587 | 0.634 | 0.476 | 0.605
6 | NCI-H2085 | 0.784 | 0.715 | 0.774 | 0.446 | 0.462 | 0.455 | 0.464 | 0.475 | 0.928 | 0.906 | 0.971 | 0.929 | 0.935 | 1.03 | 0.802 | 0.815
7 | NCI-H2087 | 1.14 | 1.06 | 1.05 | 0.805 | 0.248 | 0.204 | 0.231 | 0.128 | 1.13 | 1.24 | 1.33 | 1.01 | 0.72 | 0.671 | 0.688 | 0.698
8 | NCI-H2126 | 0.794 | 0.805 |  | 0.567 | 0.354 | 0.405 | 0.372 | 0.339 | 1.01 |  | 1.05 | 1.02 | 0.688 |  | 0.729 | 0.736
9 | NCI-H2170 | 0.271 | 0.288 | 0.278 | 0.251 | 0.402 | 0.382 | 0.391 | 0.337 | 0.81 | 0.893 | 0.848 | 0.788 | 0.289 | 0.293 | 0.271 | 0.241
10 | NCI-H2347 | 1.06 | 1.01 | 0.953 | 0.763 | 0.384 | 0.457 | 0.472 | 0.413 | 0.686 | 0.686 | 0.835 | 0.75 | 0.44 | 0.45 | 0.432 | 0.461
11 | NCI-H2405 | 1.05 | 0.962 | 0.793 | 0.705 | 0.558 | 0.538 | 0.498 | 0.527 | 0.753 |  | 0.612 | 0.547 | 1.01 | 0.973 | 0.894 | 1.12
12 | NCI-H3122 | 0.974 | 0.992 | 1.02 | 1.04 | 0.157 | 0.159 | 0.211 | 0.201 | 1 | 0.952 | 1.06 | 1.07 | 0.193 | 0.191 | 0.218 | 0.214
13 | PC-3 [JPC-3] | 0.45 | 0.46 | 0.529 | 0.33 | 0.526 | 0.535 | 0.511 | 0.545 | 0.789 | 0.734 | 0.774 | 0.684 | 1.08 | 1.21 | 0.919 | 1.01
14 | PC-14 | 0.293 | 0.287 | 0.354 | 0.361 |  | 0.576 | 0.526 | 0.474 | 0.31 | 0.236 | 0.336 | 0.213 |  | 0.143 | 0.125 | 0.145
15 | RERF-LC-KJ | 0.86 | 0.838 | 0.925 | 0.804 | 1.14 | 0.973 | 1.01 | 0.969 | 1.08 |  | 1.06 | 0.371 | 0.465 | 0.486 | 0.361 | 0.442

Reference: the supplement of paper PMC10307832
